This is an account of results in US11191795B2, “Herbal compositions and methods for treating herpes” (priority 2019, dated 2021).

The subject of the series is cold sores. The class given is in vivo, human.

`Nc1nc2c(ncn2COCCO)c(=O)[nH]1` [acyclovir]: where the note is “Example 3, person, history, oral and topical”, the “response of cold sores to treatment” value is given as “unresponsiveness”. Besides, the side effects result (human, in vivo, po) is reported as “dizziness”.
